Test results as given in ChEMBL document CHEMBL5154693, “N-Methylpropargylamine-Conjugated Hydroxamic Acids as Dual Inhibitors of Monoamine Oxidase A and Histone Deacetylase for Glioma Treatment” (J Med Chem, 2022).
The source made the active and inactive calls. The calls are words filed in the database; no cut-off is given here.

Assays:
[1] = Cytotoxicity against mouse GL26 cells assessed as inhibition of cell growth incubated for 48 hrs by MTT assay; type: functional, cell-based; details: GL26, 48 h
[2] = molecular target: T1, Amine oxidase [flavin-containing] A (Homo sapiens, UniProt P21397); assay: Inhibition of MAO-A (unknown origin) expressed in mouse GL26 cells using 14C 5-hydroxytryptamine as substrate pre-incubated for 20 mins followed by substrate addition measured after 20 mins by liquid scintillation spectroscopy; type: cell-based
T1 sequence (P21397 whole entry): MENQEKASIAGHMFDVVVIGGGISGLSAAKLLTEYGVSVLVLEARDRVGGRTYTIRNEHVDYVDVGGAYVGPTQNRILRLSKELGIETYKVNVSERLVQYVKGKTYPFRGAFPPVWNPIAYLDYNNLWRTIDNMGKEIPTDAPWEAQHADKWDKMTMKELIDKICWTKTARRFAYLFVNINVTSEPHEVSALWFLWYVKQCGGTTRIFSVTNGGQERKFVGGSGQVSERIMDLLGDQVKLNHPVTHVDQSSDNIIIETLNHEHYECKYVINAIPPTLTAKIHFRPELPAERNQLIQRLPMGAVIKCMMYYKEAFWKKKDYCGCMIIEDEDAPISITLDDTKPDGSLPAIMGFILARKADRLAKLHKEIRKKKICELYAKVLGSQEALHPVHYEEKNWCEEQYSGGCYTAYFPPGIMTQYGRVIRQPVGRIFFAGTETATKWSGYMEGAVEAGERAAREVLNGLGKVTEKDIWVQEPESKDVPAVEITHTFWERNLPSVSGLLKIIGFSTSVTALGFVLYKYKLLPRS

Histone deacetylase 1 = Histone deacetylase 1 (Homo sapiens, UniProt Q13547); assay: Inhibition of human HDAC1 (379 to 382 residues) using RHKKAc-AMC fluorogenic peptide as substrate by fluorescence assay
Sequence of Histone deacetylase 1 (Q13547 whole entry, the tested form may be a part): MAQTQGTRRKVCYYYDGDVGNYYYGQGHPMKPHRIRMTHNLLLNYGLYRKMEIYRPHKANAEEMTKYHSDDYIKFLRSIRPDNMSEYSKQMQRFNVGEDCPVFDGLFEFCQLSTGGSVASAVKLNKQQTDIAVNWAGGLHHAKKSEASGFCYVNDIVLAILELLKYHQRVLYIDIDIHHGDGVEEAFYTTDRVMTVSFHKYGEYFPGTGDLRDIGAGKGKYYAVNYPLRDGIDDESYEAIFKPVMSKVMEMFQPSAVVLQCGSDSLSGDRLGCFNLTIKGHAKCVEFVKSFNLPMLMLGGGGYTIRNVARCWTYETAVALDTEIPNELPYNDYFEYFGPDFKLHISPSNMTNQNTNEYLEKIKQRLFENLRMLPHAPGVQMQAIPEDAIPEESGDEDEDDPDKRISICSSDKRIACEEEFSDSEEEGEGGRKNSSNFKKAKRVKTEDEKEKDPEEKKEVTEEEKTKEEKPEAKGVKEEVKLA

Histone deacetylase 2 = Histone deacetylase 2 (Homo sapiens, UniProt Q92769); assay: Inhibition of human HDAC2 (379 to 382 residues) using RHKKAc-AMC fluorogenic peptide as substrate by fluorescence assay
Sequence of Histone deacetylase 2 (Q92769 whole entry, the tested form may be a part): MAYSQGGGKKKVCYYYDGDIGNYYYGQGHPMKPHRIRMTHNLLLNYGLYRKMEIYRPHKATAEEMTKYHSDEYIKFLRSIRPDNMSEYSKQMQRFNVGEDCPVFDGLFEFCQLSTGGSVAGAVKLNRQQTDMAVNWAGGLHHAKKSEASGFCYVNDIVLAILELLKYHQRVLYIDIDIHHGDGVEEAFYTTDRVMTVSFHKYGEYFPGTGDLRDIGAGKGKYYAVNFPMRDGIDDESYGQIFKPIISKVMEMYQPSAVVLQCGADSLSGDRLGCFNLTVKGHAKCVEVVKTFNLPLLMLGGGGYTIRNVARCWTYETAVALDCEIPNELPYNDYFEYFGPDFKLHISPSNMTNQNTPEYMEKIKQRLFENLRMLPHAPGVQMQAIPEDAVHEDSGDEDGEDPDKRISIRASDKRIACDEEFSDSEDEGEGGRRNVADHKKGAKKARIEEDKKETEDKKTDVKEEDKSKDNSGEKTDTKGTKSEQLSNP

[3] = molecular target: T2, Protein deacetylase HDAC6 (Homo sapiens, UniProt Q9UBN7); assay: Inhibition of human HDAC6 (379 to 382 residues) using RHKKAc fluorogenic peptide as substrate by fluorescence assay
T2 sequence (Q9UBN7 whole entry): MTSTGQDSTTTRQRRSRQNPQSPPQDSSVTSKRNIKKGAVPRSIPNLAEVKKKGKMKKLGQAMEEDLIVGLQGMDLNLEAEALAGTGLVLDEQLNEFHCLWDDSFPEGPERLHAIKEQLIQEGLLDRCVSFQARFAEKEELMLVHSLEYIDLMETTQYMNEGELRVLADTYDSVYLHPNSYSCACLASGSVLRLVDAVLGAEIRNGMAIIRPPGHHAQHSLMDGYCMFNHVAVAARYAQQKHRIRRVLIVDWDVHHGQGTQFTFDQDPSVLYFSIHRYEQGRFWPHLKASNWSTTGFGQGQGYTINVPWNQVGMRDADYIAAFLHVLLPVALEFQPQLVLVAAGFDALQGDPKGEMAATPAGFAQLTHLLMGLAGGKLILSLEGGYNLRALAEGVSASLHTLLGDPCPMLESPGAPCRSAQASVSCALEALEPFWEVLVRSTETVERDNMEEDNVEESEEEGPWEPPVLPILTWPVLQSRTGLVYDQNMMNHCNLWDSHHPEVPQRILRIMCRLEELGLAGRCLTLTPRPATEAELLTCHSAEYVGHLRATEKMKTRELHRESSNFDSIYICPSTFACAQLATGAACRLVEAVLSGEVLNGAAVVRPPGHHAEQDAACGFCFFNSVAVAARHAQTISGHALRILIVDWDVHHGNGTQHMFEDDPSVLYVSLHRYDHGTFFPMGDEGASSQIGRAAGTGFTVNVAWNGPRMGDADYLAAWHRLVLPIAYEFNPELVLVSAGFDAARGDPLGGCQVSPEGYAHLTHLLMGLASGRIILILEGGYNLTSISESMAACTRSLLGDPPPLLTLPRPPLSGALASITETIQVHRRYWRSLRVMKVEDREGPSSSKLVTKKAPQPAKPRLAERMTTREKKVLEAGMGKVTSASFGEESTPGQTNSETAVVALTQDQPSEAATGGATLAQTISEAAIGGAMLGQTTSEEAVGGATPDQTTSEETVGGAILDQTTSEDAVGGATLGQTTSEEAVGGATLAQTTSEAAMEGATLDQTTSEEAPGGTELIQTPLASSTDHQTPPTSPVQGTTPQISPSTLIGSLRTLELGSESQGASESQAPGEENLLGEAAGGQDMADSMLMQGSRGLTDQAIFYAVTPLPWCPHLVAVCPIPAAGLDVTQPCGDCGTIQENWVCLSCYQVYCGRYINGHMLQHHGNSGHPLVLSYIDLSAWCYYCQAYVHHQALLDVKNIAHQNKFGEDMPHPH

Histone deacetylase 8 = molecular target: T3, Histone deacetylase 8 (Homo sapiens, UniProt Q9BY41); assay: Inhibition of human HDAC8 (379 to 382 residues) using RHKKAcKAc-AMC fluorogenic peptide as substrate by fluorescence assay
T3 sequence (Q9BY41 whole entry): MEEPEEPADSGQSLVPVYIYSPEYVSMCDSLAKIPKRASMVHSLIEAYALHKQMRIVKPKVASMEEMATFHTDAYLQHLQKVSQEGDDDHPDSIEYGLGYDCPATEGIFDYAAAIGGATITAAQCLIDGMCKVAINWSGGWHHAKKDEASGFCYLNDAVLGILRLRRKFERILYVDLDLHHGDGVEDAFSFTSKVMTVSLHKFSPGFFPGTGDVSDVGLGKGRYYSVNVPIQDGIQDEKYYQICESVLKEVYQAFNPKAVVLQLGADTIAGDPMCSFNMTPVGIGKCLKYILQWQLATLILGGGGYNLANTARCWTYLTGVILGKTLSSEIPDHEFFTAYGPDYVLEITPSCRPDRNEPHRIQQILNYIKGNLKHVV

U-251 [4] = assay: cells; type: functional, cell-based; details: Homo sapiens, U-251, 48 h
Description: Cytotoxicity against human TMZ-sensitive U251 cells assessed as inhibition of cell growth incubated for 48 hrs by MTT assay

U-251 [5] = assay: cells; type: functional, cell-based; details: Homo sapiens, U-251, 48 h; remark: listed apart in the source
Description: Cytotoxicity against human TMZ-resistant U251 cells assessed as inhibition of cell growth incubated for 48 hrs by MTT assay

Mus musculus [6] = assay: In vivo inhibition of MAO-A in C57BL6 mouse xenografted with mouse GL26 cells as decrease in MAO activity in brain at 50 mg/kg, ip by radiometric analysis; type: functional, organism-based
GL26 [7] = assay: Antitumor activity against mouse GL26 cells implanted in C57BL6 mouse assessed as reduction in tumor size at 50 mg/kg, ip daily measured for 10 days by bioluminescence assay; type: functional, organism-based; details: time 10.0 day
[8] = Toxicity in C57BL6 mouse xenografted with mouse GL26 cells as assessed as last day of survival at 50 mg/kg, ip for 14 days treatment started at 5 days post-infection (Rvb=14 days); type: organism-based; details: in vivo, 336 h, time 14 day
Mus musculus [9] = assay: (§1) In vivo inhibition of MAO-A in mouse xenografted with mouse GL26 assessed as decrease in MAO activity in tumor at 50 mg/kg by radiometric analysis; type: functional
Mus musculus [10] = assay: In vivo inhibition of MAO-A in mouse xenografted with mouse GL26 assessed as decrease in MAO activity in brain at 25 mg/kg, ip administered for 10 days by bioluminescence assay; type: functional, organism-based; details: time 10.0 day
Mus musculus [11] = assay: In vivo inhibition of MAO-A in mouse xenografted with mouse GL26 assessed as decrease in MAO activity in tumor at 25 mg/kg, ip administered for 10 days by bioluminescence assay; type: functional, organism-based; details: time 10.0 day
[12] = Toxicity in mouse bearing intracranial tumor assessed as median survival time at 50 mg/kg, ip for 10 days (Rvb= 13.8 days); type: organism-based; details: in vivo, 240 h, time 10 day
[13] = Toxicity in mouse bearing intracranial tumor assessed as assessed as median survival time at 50 mg/kg, ip for 14 days treatment started at 5 days post-infection (Rvb=12.8 days); type: organism-based; details: in vivo, 336 h, time 14 day
[14] = Toxicity in mouse bearing intracranial tumor assessed as assessed as median survival time at 25 mg/kg, ip treatment started at 7 dpi (Rvb=18.25 days); type: organism-based; details: in vivo, 438 h
[15] = Toxicity in mouse bearing intracranial tumor assessed as last day of survival at 25 mg/kg, ip treatment started at 7 dpi (Rvb=19 days); type: organism-based; details: in vivo, 456 h
U-251 [16] = assay: Cytotoxicity against human U251 cells assessed as inhibition of cell growth incubated for 48 hrs by MTT assay; type: functional, cell-based; details: DDE = dose-dependent effect
[17] = molecular target: Lysine-specific histone demethylase 1A (Homo sapiens, UniProt O60341); assay: Inhibition of human LSD1 assessed as demethylase activity of LSD1 using Histone H3(1-21)K4me2 peptide as substrate incubated for 30 mins followed by substrate addition by amplex red dye based HRP-coupled assay
[18] = as §1; type: functional; set-up: scale not given: the % may be the effect or the level left
[19] = Toxicity in mouse bearing intracranial tumor assessed as last day of survival at 50 mg/kg,ip for 10 days (Rvb=16 days); type: organism-based; details: in vivo, 240 h, time 10 day
GL26 [20] = assay: Induction of apoptosis in mouse GL26 cells assessed as proteolytic cleavage of PARP1 incubated for 48 hrs by Western blot analysis; type: functional, cell-based; details: dose 1.25-5 µM, DDE = dose-dependent effect
[21] = Toxicity in mouse bearing intracranial tumor assessed as last day of survival at 25 mg/kg, ip in presence of clorgyline for 10 days (Rvb=16 days); type: organism-based; details: in vivo, 240 h, time 10 day
[22] = Toxicity in mouse bearing intracranial tumor assessed as last day of survival at 50 mg/kg, ip in presence of clorgyline for 10 days (Rvb=16 days); type: organism-based; details: in vivo, 240 h, time 10 day
[23] = Toxicity in mouse bearing intracranial tumor assessed as median survival time at 25 mg/kg, ip in presence of clorgyline for 10 days (Rvb=13.8 days); type: organism-based; details: in vivo, 240 h, time 10 day
[24] = Toxicity in mouse bearing intracranial tumor assessed as median survival time at 50 mg/kg, ip in presence of clorgyline for 10 days (Rvb=13.8 days); type: organism-based; details: in vivo, 240 h, time 10 day

C#CCN(C)CCCOc1cc(NC(=O)CCCCCCCCC(=O)NO)ccc1Cl
IC50 [1]: 1040 nM
IC50 [2]: < 0.1 nM
IC50 (Histone deacetylase 1): 1420 nM
IC50 (Histone deacetylase 2): 3630 nM
IC50 [3]: 160 nM
IC50 (Histone deacetylase 8): 2480 nM
IC50 (U-251 [4]): 33200 nM
IC50 (U-251 [5]): 16200 nM
Activity (Mus musculus [6]): Active
Activity (GL26 [7]): Active
Survival [8]: 16 days
Activity (Mus musculus [9]): Active
Activity (Mus musculus [10]): Active
Activity (Mus musculus [11]): Active
Survival [12]: 14.8 days
MST [13]: 14.5 days
MST [14]: 18 days
Survival [15]: 21 days

C#CCN(C)CCCOc1cc(NC(=O)CCCCCCCC(=O)NO)ccc1Cl
IC50 [1]: 19300 nM
IC50 [2]: 20 nM
IC50 (Histone deacetylase 1): 2310 nM
IC50 (Histone deacetylase 2): 4180 nM
IC50 [3]: 80 nM
IC50 (Histone deacetylase 8): 1120 nM
IC50 (U-251 [4]): 11500 nM
IC50 (U-251 [5]): 4780 nM

C#CCN(C)CCCOc1cccc(NC(=O)CCCCCCC(=O)NO)c1Cl
IC50 [1]: 1740 nM
IC50 [2]: 23300 nM
IC50 (Histone deacetylase 1): 890 nM
IC50 (Histone deacetylase 2): 3210 nM
IC50 [3]: 90 nM
IC50 (Histone deacetylase 8): 1470 nM
IC50 (U-251 [4]): 5820 nM
IC50 (U-251 [5]): 4090 nM

C#CCN(C)CCCOc1cc(NCc2ccc(C(=O)NO)cc2)ccc1Cl
IC50 [1]: 2410 nM
Activity (U-251 [16]): Dde
IC50 [2]: 0.4 nM
IC50 (Histone deacetylase 1): 2510 nM
IC50 (Histone deacetylase 2): 4750 nM
IC50 [3]: 10 nM
IC50 (Histone deacetylase 8): 1170 nM
EC50 [17]: 6000 nM
IC50 (U-251 [4]): 10100 nM
IC50 (U-251 [5]): 7120 nM
Activity (Mus musculus [6]): Active
Activity (GL26 [7]): Active
Survival [8]: 18 days
Activity [18]: 90%
Activity (Mus musculus [10]): Active
Activity (Mus musculus [11]): Active
Survival [12]: 16.8 days
Survival [19]: 20 days
MST [13]: 14.25 days
MST [14]: 19.75 days
Survival [15]: 23 days

C#CCN(C)CCCOc1cc(NC(=O)CCCCCCC(=O)NO)ccc1Cl
IC50 [1]: 1150 nM
IC50 [2]: 3250 nM
IC50 (Histone deacetylase 1): 30 nM
IC50 (Histone deacetylase 2): 150 nM
IC50 [3]: 10 nM
IC50 (Histone deacetylase 8): 50 nM
IC50 (U-251 [4]): 120 nM
IC50 (U-251 [5]): 600 nM

O=C(CCCCCCC(=O)Nc1ccccc1)NO [VORINOSTAT]
IC50 [1]: 2200 nM
Activity (GL26 [20]): Dde
Survival [12]: 13.8 days
Survival [21]: 14 days
Survival [22]: 18 days
MST [23]: 13.8 days
MST [24]: 14.4 days

C#CCN(C)CCCOc1cc(NC(=O)CCCCCCC(=O)NO)c(Cl)cc1Cl
IC50 [1]: 74000 nM
IC50 [2]: 430 nM
IC50 (Histone deacetylase 1): 3290 nM
IC50 (Histone deacetylase 2): 6680 nM
IC50 [3]: 60 nM
IC50 (Histone deacetylase 8): 1780 nM
IC50 (U-251 [4]): 50600 nM
IC50 (U-251 [5]): 8670 nM
